Reference: US20190225941A1, “MODULATION OF FUNCTION OF IMMUNE EFFECTOR CELLS” (OSLO UNIVERSITETSSYKEHUS HF, priority 2016, published 2019)
Entries after “also recorded” stand apart in the source; their conditions may differ. Peptide text beside a SMILES is read from it. * marks the point of attachment. βNA = c1ccc2cc(N*)ccc2c1

Legend:
NK cells [1] = assay: Granzyme B expression by flow cytometry after IL-15 or IL-21 stimulation with or without signalling inhibitors; type: cell-based, human
Source text: Isolated PBMC were stained for flow cytometric analysis using an appropriate combination of the following antibodies, followed by the name of the clone in brackets: CD14-V500 (M5E2), CD19-V500 (HIB19), CD3-V500 (UCHT1), CD56 ECD (N901) CD57-PB (HCD57), CD57 purified (TB01), anti-mouse-IgM-EF650 (II/41), NKG2A-PE, APC or APC.AF750 (Z199), CD16-BV785 (3G8), KIR2DL3-FITC, KIR2DL1-APC or APC-Vio770 (REA284), KIR3DL1-AF700 or BV421 (D×9), KIR2DS4-QD585 (1847), KIR3DL2-biotin (D×31), KIR2DL2/L3/S2-PE.Cy5.5 (GL183), KIR2DL1/S1-PE.Cy7 (EB6) or PE-Vio770 (11 PB6). Dead cells were labelled using live/dead aqua (Life technologies). Biotin-conjugated antibodies were visualized using streptavidin-Qdot 585 or 605 (Life technologies). After surface staining, cells were fixed and permeabilized using a fixation/permeabilization kit (BD Bioscience Cytofix/Cytoperm) prior to intracellular staining with anti-granzyme B-A700 (GB11). Samples were acquired using an LSRII flow cytometer (Becton Dickinson) and data was analysed using FlowJo V10.0.8 (TreeStar).

NK cells [2] = assay: Viability of NK cells exposed to lysosomotropic compounds; type: cell-based, human; settings: at the doses tested, FIG. 15A
NK cells [3] = settings: positive control, known property; cited from earlier work
primary NK cells [4] = assay: Confocal imaging of primary NK cells exposed to PIKfyve inhibitors (LAMP-1 / granzyme B staining); type: cell-based, human; settings: for secretory lysosome size: 1 μM overnight, LAMP-1 staining, FIG. 10
Experimental: Sorted NK cells were prepared for confocal microscopy using fixation/permeabilization (BD Bioscience Cytofix/Cytoperm) prior to intracellular staining with mouse anti-human granzyme B-A647 (GB11), rabbit anti-human pericentrin (Ab4448) followed by Donkey anti-Rabbit IgG Alexa555 and donkey anti-mouse-A568. After staining, the fixed cells were adhered to glass cover slips using Cell Tak (Corning) and mounted using Pro-long Gold Antifade with DAPI. The cells were examined with a Zeiss LSM 710 confocal microscope (Carl Zeiss Microlmaging GmbH) equipped with an Ar-Laser Multiline (458/488/514 nm), a DPSS-561 10 (561 nm), a Laser diode 405-30 CW (405 nm), and a HeNe-laser (633 nm). The objective used was a Zeiss plan-Apochromat 63×NA/1.4 oil DICII. Image processing and analysis were performed with basic software ZEN 2011 (Carl Zeiss Microlmaging GmbH) and Imaris 7.7.2 (Bitplane AG). Confocal z-stacks were deconvolved using Huygens Essential 14.06 (Scientific Volume Imaging b.v.), and visualized with Imaris.
Cells were surface-stained with anti-human HLA-ABC antibody (W6/32, BioLegend) prior to settlement on CelITak-coated slides for 20 minutes, followed by fixation with 4% paraformaldehyde. Intracellular staining was performed by incubation with anti-human LAMP-1 (Ab24170, Abcam) for 4h, followed by donkey anti-rabbit-A488 antibody (abcam) and donkey anti-mouse-A568 antibody (Abcam) and Hoechst33342.
Where indicated, cells were stained with mouse anti-human granzyme B-A647 (GB11) instead of anti-HLA-ABC, followed by donkey anti-mouse-A568.

primary NK cells [5] = assay: Phospho-flow cytometry after CD16 ligation; type: cell-based, human; settings: 1 h pre-treatment, GPN 50 μM or vacuolin-1 10 μM
Experimental: Functional assays for phospho-flow cytometry were performed at 37° C. in complete medium in NK cell suspensions between 5-10 M/mL for 20 min. Cells were pre-treated for 1 h using GPN (50 μM) or vacuolin-1 (10 μM), after which biotinylated CD16 (Biolegend, clone 3G8) was added to final concentrations of 5 μg/mL each. After 1 min, the aliquot for the 0 min (unstimulated) sample was taken out and mixed with Fix Buffer I (BD Biosciences). After one additional minute, the stimulation was started by crosslinking the biotinylated antibodies via 50 μg/mL avidin (Thermo Fischer Scientific) and the aliquots for the 5 min, 10 min and 20 min samples were transferred into Fix Buffer I (BD bioscience) at the corresponding time points. Cells were fixed at 37° C. for 10 min, washed and re-suspended in PBS. To allow combination of the differently stimulated samples into one, two dimensional fluorescent cell barcoding (FCB) was utilized. Samples were stained in distinct concentrations of amine-reactive pacific blue succinimidyl ester (Thermo Fisher Scientific) for the time points (0 min-0.69 ng/mL, 5 min-6.25 ng/mL, 10 min-25 ng/mL and 20 min-100 ng/mL) in combination with amine-reactive pacific orange succinimidyl ester (Thermo Fisher Scientific) for the different stimulations (control—10 ng/mL, GPN—100 ng/mL and vacuolin-1-500 ng/mL). After 20 min at RT, samples were washed twice in wash solution (PBS supplemented with 1% FCS and 0.09% sodium azide), combined, permeabilized (Perm Buffer III, BD Biosciences) and stored at −80° C. For thawing, samples were incubated 20 min on ice. Then, they were washed in wash solution and stained with Alexa Fluor 647-conjugated phospho epitope-specific antibodies against ZAP70/syk (pY319/pY352), Lck (pY505), Erk1/2 (pT202/pY204) (BD Bioscience), NF-κB p65 (pS536) (Cell Signaling Technologies) or isotype control IgG1K (BD Biosciences) for 30 min at RT. After washing data was acquired on an LSR Fortessa (BD Biosciences) and analysed in with FlowJo v10.0.8 (TreeStar).

NK cells [6] = assay: CD107a mobilization after PMA/Ionomycin stimulation; type: cell-based, human; settings: indicated doses of GPN, FIG. 14D-E
Experimental: (§1) Functional assays were performed at 37° C. in complete medium (RPMI+10% FCS) for the times indicated. Purified NK cells were incubated with K562 target cells for 5 hours at a ratio of 1:1 in the presence of anti-CD107a-FITC (biolegend) for degranulation assays, or with the addition of Brefeldin A (GolgiPlug BD) for degranulation plus intracellular cytokine assays. Treatment with lysosomotropic reagents were performed for the duration of the assay using the following final concentrations; glycyl-L-phenylalanine-β-naphthylamide (GPN, 50 μM), mefloquine (10 μM), siramesine (10 μM), vacuolin-1 (10 μM). Stimulation with PMA (1 μg/mL) and ionomycin (0.5 μM), or with thapsigargin (1 μM) and/or U18666a (2 μg/mL) were performed for the times indicated, and the cells were stained for CD107a surface expression post-stimulation.

NK cells [7] = assay: Degranulation (CD107a) and intracellular IFN-γ functional assay, NK cells stimulated with K562 target cells; type: cell-based, human; settings: for IFN-γ response to K562 cells / degranulation (CD107a) in response to K562 cells: 5 h, 1:1 ratio, GPN 50 μM, mefloquine 10 μM, siramesine 10 μM, vacuolin-1 10 μM
Experimental: as §1

Compound: IL-15: cytokine used to prime NK cells
- granzyme B response to cytokine priming, CD56bright NK cells (NK cells [1]; CD56bright NK cells): responded to priming by IL-15
- granzyme B response to cytokine stimulation, CD56dim NK cells (NK cells [1]): increases in the level of granzyme B

Compound: OC(c1cc(C(F)(F)F)nc2c(C(F)(F)F)cccc12)C1CCCCN1 (stereo not shown) [Mefloquine]
- general cellular toxicity (NK cell viability) (NK cells [2]): none of these compounds showed any general cellular toxicity

Compound: COC(=O)[C@H](CC(C)C)NC(=O)[C@@H](N)CC(C)C [LeuLeuOMe, L-Leucyl-L-leucine methyl ester]
- induction of apoptosis in immune cells (NK cells [3]): known to induce apoptosis in immune cells

Compound: CCC(=O)N1CCN(c2ccc(-n3c(=O)ccc4cnc5ccc(-c6cnc7ccccc7c6)cc5c43)cc2C(F)(F)F)CC1 [Torin-1]
- cytokine-induced increase in granzyme B (NK cells [1]; 24 h IL-15 or IL-21, self- and non-self-specific NK cells): reversed the cytokine-induced increase in granzyme B
- pre-existing constitutive levels of granzyme B (NK cells [1]; before cytokine stimulation, FIG. 6): did not further reduce

Compound: Fc1ccc(-n2cc(CCCCN3CCC4(CC3)OCc3ccccc34)c3ccccc32)cc1 [Siramesine]
- general cellular toxicity (NK cell viability) (NK cells [2]): none of these compounds showed any general cellular toxicity

Compound: Cc1cccc(/C=N/Nc2cc(N3CCOCC3)nc(OCCc3ccccn3)n2)c1 [apilimod]
- secretory lysosome size (primary NK cells [4]): increase in secretory lysosome size

Compound: NCC(=O)N[C@@H](Cc1ccccc1)C(=O)Nc1ccc2ccccc2c1 [GPN, glycyl-L-phenylalanine-beta-naphthylamide] (H-Gly-Phe-βNA)
- propagation of down-stream signals, in particular NF-κB (primary NK cells [5]): decreased
- upstream signalling (ZAP70 and Lck phosphorylation) following ligation of CD16 (primary NK cells [5]): minimal effect
- threshold for PMA/I-induced activation in self-specific NK cells (NK cells [6]): reversed the higher threshold for PMA/I-induced activation
- general cellular toxicity (NK cell viability) (NK cells [2]): none of these compounds showed any general cellular toxicity
- IFN-γ response to K562 cells (NK cells [7]): reduced corresponding IFN-γ expression
- degranulation (CD107a) in response to K562 cells (NK cells [7]): abrogate specific degranulation

Compound: Ic1cccc(/C=N/Nc2nc(N3CCOCC3)nc(N(c3ccccc3)c3ccccc3)n2)c1 [vacuolin-1]
- secretory lysosome size (primary NK cells [4]): increase in secretory lysosome size
- clustering of granzyme B within secretory lysosomes (primary NK cells [4]; vacuolin-1 treatment, FIG. 11): clustering of Granzyme B inside the secretory lysosomes; also recorded: cause granzyme B to cluster within the large secretory lysosomes formed
- propagation of down-stream signals, in particular NF-κB (primary NK cells [5]): increased
- upstream signalling (ZAP70 and Lck phosphorylation) following ligation of CD16 (primary NK cells [5]): minimal effect
- IFN-γ response to K562 cells (NK cells [7]): enhanced
- degranulation (CD107a) in response to K562 cells (NK cells [7]): enhanced
- NK cell function, compound alone (NK cells [7]; resting NK cells, no target cell stimulation): had no effect

Compound: IL-21: cytokine used to prime NK cells
- granzyme B response to cytokine stimulation, CD56dim NK cells (NK cells [1]): increases in the level of granzyme B
